Results from patent publication US8404857B2, “α-crystalline form of carbabenzpyride” (Farmak International Holding GmbH, priority 2010, dated 2013).
Where two headings read alike, the source gives them in different places. Marks after values point to notes of the source that are not given here.

Experiments:
[1] = test system: Influenza A strain New Caledonia (H1N1); assay type: cell-based; settings: NBL-2 cells, MOI 0.01, 24 h
[2] = test system: Influenza A strain California (H3N2); assay type: cell-based; settings: Table 9, NBL-2 cells, MOI 0.001, 24 h
[3] = test system: Influenza A strain Victoria (H3N2); assay: Virus yield reduction assay, Influenza A Victoria (H3N2); assay type: cell-based, Influenza A H3N2 (strain Victoria/3/75); settings: Table 10, NBL-2 cells, MOI 0.01, 24 h
Adenovirus 3 = assay: Virus yield reduction assay, Adenovirus 3; assay type: cell-based; settings: A549 cells, MOI 0.05, 4 days
Adenovirus 5 = assay: Virus yield reduction assay, Adenovirus 5; assay type: cell-based; settings: A549 cells, MOI 0.05, 4 days
Human metapneumovirus = assay: Virus yield reduction assay, Human metapneumovirus; assay type: cell-based; settings: MK2 cells, MOI 0.1, 8 days
Enterovirus 71 = assay: Virus yield reduction assay, Enterovirus 71; assay type: cell-based; settings: HFF, MOI 0.1, 3 days
Coxsackie virus A9 = assay: Virus yield reduction assay, Coxsackie virus A9; assay type: cell-based; settings: HFF, MOI 0.005, 3 days
Echo virus 11 = assay: Virus yield reduction assay, Echo virus 11; assay type: cell-based; settings: HFF, MOI 0.005, 3 days
Echo virus 30 = assay: Virus yield reduction assay, Echo virus 30; assay type: cell-based; settings: HFF, MOI 0.01, 3 days
[4] = test system: Human cytomegalovirus Hi91; assay: Virus yield reduction assay, Human cytomegalovirus Hi91; assay type: cell-based; settings: HFF, MOI 0.02, 5 days
[5] = test system: Human cytomegalovirus AD169; assay: Virus yield reduction assay, Human cytomegalovirus AD169; assay type: cell-based; settings: HFF, MOI 0.02, 5 days
IFN-α = assay: Circulating IFN-α levels in blood serum of volunteers with acute respiratory infection; assay type: in vivo, human; settings: for IFN-α Mean value / IFN-α Median: blood serum
Description: (§1) Increase of IFN-α levels was also observed in patients treated with Placebo, yet, this growth was less intensive than in FAV00A group (Table 22).

IFN-γ = assay: Circulating IFN-γ levels in blood serum of volunteers with acute respiratory infection; assay type: in vivo, human; settings: for IFN-γ Mean value / IFN-γ Median: blood serum
Description: as §1

blood monocytes = assay: Blood monocytes level (complete blood counts) of volunteers; assay type: in vivo, human; settings: throughout the study; control group decreased by V3 and V4
Description: The results of investigating FAV00A effect of body interferon status correlate with the data collected during statistical processing of volunteers' complete blood counts. […] This fact is indicative of limitation of viral infection immunosuppressive effect on cellular immunity responses in FAV00A treatment group.

[6] = Table 8, 400 μg with 45 minutes pre-incubation
[7] = Table 8, 400 μg without pre-incubation
[8] = 7-th day of the drug intake (Visit V3)
[9] = Visit V3 (7-th day of drug intake)

Structure (SMILES): C[n+]1ccc(C(=O)NCc2ccccc2)cc1 [FAV00A, carbabenzpyride]
- % virus yield relative to control [1, 6]: 52%
- Fold reduction [1, 6]: 1.92
- Titer (TCID50/ml) [1, 6]: 1.10 * 10^6 TCID50/ml
- % virus yield relative to control [1, 7]: 31%
- Fold reduction [1, 7]: 3.23
- Titer (TCID50/ml) [1, 7]: 6.56 * 10^5 TCID50/ml
- % virus yield relative to control ([1]; Table 11a, 400 μg): 32%
- Fold reduction ([1]; Table 11a, 400 μg): 3.13
- Titer (TCID50/ml) ([1]; Table 11a, 400 μg): 6.81 * 10^3 TCID50/ml
- % virus yield relative to control ([1]; Table 12b, 800 μg): 28%
- Fold reduction ([1]; Table 12b, 800 μg): 3.57
- Titer (TCID50/ml) ([1]; Table 12b, 800 μg): 2.70 * 10^6 TCID50/ml
- % virus yield relative to control ([2]; 400 μg): 76%
- Fold reduction ([2]; 400 μg): 1.32
- Titer (TCFD50/ml) ([2]; 400 μg): 2.25 * 10^4 TCFD50/ml
- % virus yield relative to control ([2]; 800 μg): 61%
- Fold reduction ([2]; 800 μg): 1.64
- Titer (TCFD50/ml) ([2]; 800 μg): 1.80 * 10^4 TCFD50/ml
- % virus yield relative to control ([3]; 400 μg): 41%
- Fold reduction ([3]; 400 μg): 2.44
- Titer (TCID50/ml) ([3]; 400 μg): 1.20 * 10^6 TCID50/ml
- % virus yield relative to control ([3]; 800 μg): 27%
- Fold reduction ([3]; 800 μg): 3.70
- Titer (TCID50/ml) ([3]; 800 μg): 7.75 * 10^5 TCID50/ml
- Virus titre (Adenovirus 3; FAV00A 12.5 μg/ml): 7.2 × 10^7 TCID50/ml
- % titre reduction in comparison to virus control (Adenovirus 3; FAV00A 25 μg/ml): (11.3%)
- Virus titre (Adenovirus 3; FAV00A 25 μg/ml): 5.4 × 10^7 TCID50/ml
- % titre reduction in comparison to virus control (Adenovirus 3; FAV00A 50 μg/ml): (43.5%)^1
- Virus titre (Adenovirus 3; FAV00A 50 μg/ml): 3.4 × 10^7 TCID50/ml
- Virus titre (Adenovirus 5; FAV00A 12.5 μg/ml): 7.0 × 10^8 TCID50/ml
- % titre reduction in comparison to virus control (Adenovirus 5; FAV00A 25 μg/ml): (43.7%)
- Virus titre (Adenovirus 5; FAV00A 25 μg/ml): 3.0 × 10^8 TCID50/ml
- % titre reduction in comparison to virus control (Adenovirus 5; FAV00A 50 μg/ml): (68.4%)^1
- Virus titre (Adenovirus 5; FAV00A 50 μg/ml): 1.7 × 10^8 TCID50/ml
- % titre reduction in comparison to virus control (Human metapneumovirus; FAV00A 125 μg/ml): (88.5%)
- Virus titre (Human metapneumovirus; FAV00A 125 μg/ml): 4.0 × 10^4 TCID50/ml
- Virus titre (Human metapneumovirus; FAV00A 250 μg/ml): 5.4 × 10^4 TCID50/ml
- % titre reduction in comparison to virus control (Human metapneumovirus; FAV00A 500 μg/ml): (95.6%)^1
- Virus titre (Human metapneumovirus; FAV00A 500 μg/ml): 2.0 × 10^3 TCID50/ml
- Virus titre (Enterovirus 71; FAV00A 50 μg/ml): 5.4 × 10^3 TCID50/ml
- % titre reduction in comparison to virus control (Enterovirus 71; FAV00A 100 μg/ml): (83.6%)
- Virus titre (Enterovirus 71; FAV00A 100 μg/ml): 6.5 × 10^2 TCID50/ml
- % titre reduction in comparison to virus control (Enterovirus 71; FAV00A 200 μg/ml): (97.6%)^1
- Virus titre (Enterovirus 71; FAV00A 200 μg/ml): 9.6 × 10^1 TCID50/ml
- % titre reduction in comparison to virus control (Coxsackie virus A9; FAV00A 12.5 μg/ml): (45.3%)
- Virus titre (Coxsackie virus A9; FAV00A 12.5 μg/ml): 1.7 × 10^4 TCID50/ml
- % titre reduction in comparison to virus control (Coxsackie virus A9; FAV00A 25 μg/ml): (45.7%)
- Virus titre (Coxsackie virus A9; FAV00A 25 μg/ml): 1.7 × 10^5 TCID50/ml
- % titre reduction in comparison to virus control (Coxsackie virus A9; FAV00A 50 μg/ml): (65.3%)^1
- Virus titre (Coxsackie virus A9; FAV00A 50 μg/ml): 1.1 × 10^5 TCID50/ml
- % titre reduction in comparison to virus control (Echo virus 11; FAV00A 62.5 μg/ml): (41.8%)
- Virus titre (Echo virus 11; FAV00A 62.5 μg/ml): 1.8 × 10^8 TCID50/ml
- % titre reduction in comparison to virus control (Echo virus 11; FAV00A 125 μg/ml): (36.4%)
- Virus titre (Echo virus 11; FAV00A 125 μg/ml): 1.9 × 10^8 TCID50/ml
- % titre reduction in comparison to virus control (Echo virus 11; FAV00A 250 μg/ml): (79.9%)^1
- Virus titre (Echo virus 11; FAV00A 250 μg/ml): 6.1 × 10^7 TCID50/ml
- Virus titre (Echo virus 30; FAV00A 25 μg/ml): 1.2 × 10^8 TCID50/ml
- % titre reduction in comparison to virus control (Echo virus 30; FAV00A 50 μg/ml): (17.0%)
- Virus titre (Echo virus 30; FAV00A 50 μg/ml): 7.9 × 10^7 TCID50/ml
- % titre reduction in comparison to virus control (Echo virus 30; FAV00A 100 μg/ml): (68.3%)^1
- Virus titre (Echo virus 30; FAV00A 100 μg/ml): 3.0 × 10^7 TCID50/ml
- % titre reduction in comparison to virus control ([4]; FAV00A 125 μg/ml): (24.9%)
- % titre reduction in comparison to virus control ([4]; FAV00A 250 μg/ml): (86.0%)
- Virus titre ([4]; FAV00A 250 μg/ml): 5.2 × 10^3 TCID50/ml
- % titre reduction in comparison to virus control ([4]; FAV00A 500 μg/ml): (93.5%)^1
- Virus titre ([4]; FAV00A 500 μg/ml): 2.4 × 10^3 TCID50/ml
- Virus titre ([5]; FAV00A 125 μg/ml): 2.2 × 10^5 TCID50/ml
- Virus titre ([5]; FAV00A 250 μg/ml): 1.0 × 10^5 TCID50/ml
- % titre reduction in comparison to virus control ([5]; FAV00A 500 μg/ml): (41.1%)^1
- Virus titre ([5]; FAV00A 500 μg/ml): 5.3 × 10^4 TCID50/ml
- IFN-α levels versus the baseline values and Placebo group (IFN-α; [8]): Significant elevation
- IFN-α Mean value (IFN-α; Visit V1 (baseline)): 22.290
- IFN-α Median (IFN-α; Visit V1 (baseline)): 23.7
- IFN-α Mean value (IFN-α; [9]): 37.563*
- IFN-α Median (IFN-α; [9]): 37.4*
- IFN-α Mean value (IFN-α; Visit V4): 30.072*
- IFN-α Median (IFN-α; Visit V4): 30.55*
- IFN-γ levels versus the baseline values and Placebo group (IFN-γ; [8]): Significant elevation
- IFN-γ Mean value (IFN-γ; Visit V1 (baseline)): 33.168
- IFN-γ Median (IFN-γ; Visit V1 (baseline)): 33.25
- IFN-γ Mean value (IFN-γ; [9]): 44.670*
- IFN-γ Median (IFN-γ; [9]): 45.85*
- IFN-γ Mean value (IFN-γ; Visit V4): 41.313*
- IFN-γ Median (IFN-γ; Visit V4): 40.1*
- Change of blood monocytes level (blood monocytes): No considerable decrease

Structure (SMILES): CC(=O)N[C@H]1[C@H]([C@H](O)[C@H](O)CO)OC(C(=O)O)=C[C@@H]1N=C(N)N [Zanamivir, reference compound]
- % virus yield relative to control ([1]; Table 8, 10 ng): 23%
- Fold reduction ([1]; Table 8, 10 ng): 4.35
- Titer (TCID50/ml) ([1]; Table 8, 10 ng): 4.85 * 10^5 TCID50/ml
- % virus yield relative to control ([1]; Table 11a, 100 ng): 3%
- Fold reduction ([1]; Table 11a, 100 ng): 33.33
- Titer (TCID50/ml) ([1]; Table 11a, 100 ng): 7.00 * 10^4 TCID50/ml
- % virus yield relative to control ([1]; Table 12b, 100 ng): 15%
- Fold reduction ([1]; Table 12b, 100 ng): 6.67
- Titer (TCID50/ml) ([1]; Table 12b, 100 ng): 1.42 * 10^6 TCID50/ml
- % virus yield relative to control ([2]; 100 ng): 0.4%
- Fold reduction ([2]; 100 ng): 250
- Titer (TCFD50/ml) ([2]; 100 ng): 1.18 * 10^2 TCFD50/ml
- % virus yield relative to control ([3]; 100 ng): 0.02%
- Fold reduction ([3]; 100 ng): 5000
- Titer (TCID50/ml) ([3]; 100 ng): 7.05 * 10^2 TCID50/ml
